Measurements taken from patent US4593092A, “Class of spiro-linked pyrrolidine-2,5-diones” (Kyorin Pharmaceutical Co., Ltd., priority 1983, dated 1986).
Like-named read-outs stand apart in the source and are kept apart here.

Legend:
aldose reductase [1] = molecular target: T1, aldose reductase (Rattus norvegicus, UniProt P07943); assay: Inhibitory activity on aldose reductase in vivo (serum of orally dosed rats added to the aldose reductase assay); conditions: oral, 0.5 ml added to assay
T1 construct: partially purified enzyme from rat lens; from tissue; host or cells: rat lens
Experimental: (§1) Aldose reductase preparation used in this test was partially purified enzyme from rat lens.
In order to estimate whether the compounds are available for inhibiting the enzyme in vivo, following preliminary test was carried out.
2 and 5 hours later, blood samples were taken from the rats. A 0.5 ml of serum, instead of the compound, was added to the assay system described in Experiment 1.

aldose reductase [2] = molecular target: T1, aldose reductase; assay: Inhibitory activity on aldose reductase in vitro; assay type: biochemical; conditions: partially purified enzyme from rat lens
Text: as §1

[3] = system: pentylenetetrazole convulsion; assay: Anti-convulsion test (pentylenetetrazole convulsion); assay type: in vivo; conditions: ICR mice; Example 2 orally at 50, 200, 500 and 800 mg/kg; pentylenetetrazole 100 mg/kg i.p. 2 hours later
Experimental: Mice (ICR stain) were administered orally with the compound of Example 2 at various doses of 50, 200, 500 and 800 mg/kg and injected with pentylenetetrazole at a dose of 100 mg/kg intraperitoneally 2 hours later.

[4] = Acute toxicity on mice, oral; conditions: mouse, in vivo
Experimental: Acute toxicity was tested by oral administration with the compounds of this invention in fasted mice (ICR stain).

[5] = serum taken 2 hr after administration, read-out: Inhibition % on aldose reductase in vivo, 2 hr after administration
[6] = serum taken 5 hr after administration, read-out: Inhibition % on aldose reductase in vivo, 5 hr after administration

Compound | inhibition at 25 mg/kg (aldose reductase [1]; [5]) [%] | inhibition at 25 mg/kg (aldose reductase [1]; [6]) [%] | IC50 (aldose reductase [2]) [nM] | anti-convulsion activity (suppressive effect on pentylenetetrazole convulsion) [3] | LD50 ([4]; oral, fasted ICR mice) [mg/kg] | LD50 ([4]; po) [mg/kg]
O=C1CC2(C(=O)N1)C(=O)N1CCCc3cccc2c31 (stereo not shown) [Example 1, 5',6'-Dihydrospiro[pyrrolidine-3,1'-[4H]pyrrolo[3,2,1-ij]quinoline]-2,2',5(1'H)-trione] | 61.2 | 49.8 | 6000 |  |  | 
CC1CCc2cccc3c2N1C(=O)C31CC(=O)NC1=O (stereo not shown) [Example 3] | 53.3 | 42.6 | 9000 |  |  | 
CC1CCc2cc(Cl)cc3c2N1C(=O)C31CC(=O)NC1=O (stereo not shown) [Example 4] | 71.5 | 70.2 | 350 |  |  | 
O=C1CC2(C(=O)N1)C(=O)N1c3ccccc3Sc3cccc2c31 (stereo not shown) [Example 6, Spiro[pyrrolidine-3,2'-pyrrolo[3,2,1-kl]phenothiazine]-1',2,5(2'H)-trione] | 11.8 | 13.4 | 350 |  | > 2000 | 
O=C1CC2(C(=O)N1)C(=O)N1CCOc3cc(Cl)cc2c31 (stereo not shown) [Example 8, 8'-Chloro-2',3'-dihydrospiro[pyrrolidine-3,6'-pyrrolo[1,2,3-de][1,4]benzoxazine]-2,5,5'(6'H9-trione] | 62.5 | 61.4 | 600 |  |  | > 2000
O=C1CC2(C(=O)N1)C(=O)N1CCOc3c(Cl)ccc2c31 (stereo not shown) [Example 12] | 72.3 | 73.9 | 1500 |  |  | > 2000
O=C1CC2(C(=O)N1)C(=O)N1CCOc3c(Cl)c(Cl)cc2c31 (stereo not shown) [Example 13] | 78.2 | 81.2 | 200 |  |  | > 2000
O=C1CC2(C(=O)N1)C(=O)N1CCOc3cc(F)cc2c31 (stereo not shown) [Example 14] | 75.1 | 75.8 | 700 |  |  | > 1000
Cc1cc2c3c(c1)C1(CC(=O)NC1=O)C(=O)N3CCO2 (stereo not shown) [Example 16] |  |  | 2500 |  |  | > 2000
O=C1NC(=O)[C@@]2(CCOc3ccc(F)cc32)N1 [Sorbinil, (4S)2,3-dihydro-6-fluorospiro[4H--1benzopyran-4,4 imidazolidine2',5dione, reference compound] | 79.8 | 79.5 |  | dose-dependent protection against the tonic convulsion |  | 
O=C1NC(=O)C(c2ccccc2)(c2ccccc2)N1 [phenytoin] |  |  |  | dose-dependent protection against the tonic convulsion |  | 

Second part, led by results:

inhibition at 25 mg/kg (aldose reductase [1]; [5]) [%] | inhibition at 25 mg/kg (aldose reductase [1]; [6]) [%] | IC50 (aldose reductase [2]) [nM] | Compound | anti-convulsion activity (suppressive effect on pentylenetetrazole convulsion) [3] | LD50 ([4]; oral, fasted ICR mice) [mg/kg] | LD50 ([4]; po) [mg/kg]
71.7 | 68.5 | 400 | O=C1CC2(C(=O)N1)C(=O)N1CCCc3cc(Cl)cc2c31 (stereo not shown) [Example 2, 8'-Chloro-5',6'-dihydrospiro[pyrrolidine-3,1'-[4H]pyrrolo[3,2,1-ij]quinoline]-2,2',5(1'H)-trione] | did not show any suppressive effect |  | 
52.3 | 47.6 | 5000 | O=C1CC2(C(=O)N1)C(=O)N1CCOc3cccc2c31 (stereo not shown) [Example 5] |  |  | 
48.4 | 33.8 | 2000 | Cc1cc2c3c(c1)C1(CC(=O)NC1=O)C(=O)N3CCC2 (stereo not shown) [Example 7, 5',6'-Dihydro-8'-methylspiro[pyrrolidine-3,1'-[4H]pyrrolo[3,2,1-ij]quinoline]-2,2',5(1'H)-trione] |  |  | 
72.3 | 71.3 | 2000 | O=C1CC2(C(=O)N1)C(=O)N1CCSc3cccc2c31 (stereo not shown) [Example 11] |  |  | 
74.9 | 75.2 | 700 | O=C1CC2(C(=O)N1)C(=O)N1CCOc3c(F)c(F)cc2c31 (stereo not shown) [Example 15] |  |  | 
 |  | 35000 | COc1cc2c3c(c1)C1(CC(=O)NC1=O)C(=O)N3CCO2 (stereo not shown) [Example 17] |  |  | 
